Data as given in publication PMC10284550, “Accelerating drug target inhibitor discovery with a deep generative foundation model” (Science Advances, 2023).
“Also recorded” adds a separate entry of the source.

Target: SARS-CoV-2 spike glycoprotein ectodomain (Severe acute respiratory syndrome coronavirus 2, UniProt P0DTC2, K986P/R682G/R683S/R685S/V987P)
Assay type: binding
Conditions: pH 7.5

With `C#CCN1CCC(CCNc2ccnc3ccccc23)CC1` [GEN727] the “Effect on stability of the spike (thermofluor)” value was “appeared to reduce the speed of the transition of the spike to a less stable form; also recorded: somewhat destabilized the spike”.
